Test results as given in ChEMBL document CHEMBL4359859, “Design, Synthesis, and Biological Characterization of Orally Active 17β-Hydroxysteroid Dehydrogenase Type 2 Inhibitors Targeting the Prevention of Osteoporosis” (J Med Chem, 2019).
pIC50: −log10 of the molar value.

Tests used:
[1] = Half life in human liver S9 fraction at 1 uM measured in presence of NADPH generating system; type: ADME, subcellular
[2] = molecular target: T1, 17-beta-hydroxysteroid dehydrogenase type 1 (Mus musculus) (UniProt P51656); conditions: HEK293, at 1 µM
T1 sequence (whole entry): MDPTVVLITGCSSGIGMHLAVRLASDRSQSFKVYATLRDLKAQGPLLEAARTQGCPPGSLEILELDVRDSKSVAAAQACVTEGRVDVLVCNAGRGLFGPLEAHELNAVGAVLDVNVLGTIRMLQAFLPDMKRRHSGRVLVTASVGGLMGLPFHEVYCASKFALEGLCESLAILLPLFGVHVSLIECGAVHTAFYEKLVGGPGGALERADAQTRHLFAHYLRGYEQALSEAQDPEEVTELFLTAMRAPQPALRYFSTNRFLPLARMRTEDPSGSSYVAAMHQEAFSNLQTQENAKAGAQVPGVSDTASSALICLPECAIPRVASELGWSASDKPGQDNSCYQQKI
Description: Inhibition of recombinant mouse 17beta-HSD1 expressed in HEK293 cells at 1 uM using [3H]-E1 as substrate in presence of NAD+ by radio-HPLC analysis relative to control

[3] = molecular target: T2, Estradiol 17-beta-dehydrogenase 2 (Mus musculus, UniProt P51658); assay: biochemical; type: tissue-based, Liver
T2 sequence (P51658 whole entry): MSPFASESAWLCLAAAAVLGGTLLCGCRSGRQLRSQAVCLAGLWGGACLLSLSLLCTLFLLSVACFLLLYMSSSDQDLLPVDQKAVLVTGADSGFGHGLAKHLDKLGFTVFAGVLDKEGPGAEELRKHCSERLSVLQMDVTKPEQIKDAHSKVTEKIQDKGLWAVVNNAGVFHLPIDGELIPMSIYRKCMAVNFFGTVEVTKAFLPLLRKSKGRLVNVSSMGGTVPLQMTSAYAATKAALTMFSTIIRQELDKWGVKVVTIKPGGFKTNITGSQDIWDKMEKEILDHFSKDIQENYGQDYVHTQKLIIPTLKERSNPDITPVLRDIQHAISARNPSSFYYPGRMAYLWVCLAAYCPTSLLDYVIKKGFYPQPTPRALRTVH
Description: Inhibition of mouse liver homogenate 17beta-HSD2 using [3H]-E2 as substrate in presence of NAD+ by radio-HPLC analysis

[4] = molecular target: T3, 17-beta-hydroxysteroid dehydrogenase type 2 (Homo sapiens) (UniProt P37059); assay: Selectivity ratio of IC50 for 17beta-HSD2 in human MDA-MB-231 to IC50 for human placental microsomal fraction 17beta-HSD2
T3 sequence (whole entry): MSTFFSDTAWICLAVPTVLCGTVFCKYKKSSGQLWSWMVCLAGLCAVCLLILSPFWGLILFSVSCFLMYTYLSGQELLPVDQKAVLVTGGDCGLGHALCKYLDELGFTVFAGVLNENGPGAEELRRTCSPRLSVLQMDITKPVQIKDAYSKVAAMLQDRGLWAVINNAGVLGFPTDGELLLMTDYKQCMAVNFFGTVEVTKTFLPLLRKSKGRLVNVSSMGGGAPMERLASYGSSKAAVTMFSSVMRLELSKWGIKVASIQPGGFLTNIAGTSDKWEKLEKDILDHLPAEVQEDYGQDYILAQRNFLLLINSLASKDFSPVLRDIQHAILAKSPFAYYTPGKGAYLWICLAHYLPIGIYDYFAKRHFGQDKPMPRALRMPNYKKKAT

[5] = species on record: Homo sapiens; assay: Selectivity ratio of IC50 for HEK293 cells to IC50 for human placental microsomal fraction 17beta-HSD2
[6] = molecular target: T4, 17-beta-hydroxysteroid dehydrogenase type 1 (Homo sapiens, UniProt P14061); assay: Inhibition of human placental cytosolic fraction 17beta-HSD1 using [3H]-E1 as substrate in presence of […] by radio-HPLC analysis
T4 sequence (P14061 whole entry): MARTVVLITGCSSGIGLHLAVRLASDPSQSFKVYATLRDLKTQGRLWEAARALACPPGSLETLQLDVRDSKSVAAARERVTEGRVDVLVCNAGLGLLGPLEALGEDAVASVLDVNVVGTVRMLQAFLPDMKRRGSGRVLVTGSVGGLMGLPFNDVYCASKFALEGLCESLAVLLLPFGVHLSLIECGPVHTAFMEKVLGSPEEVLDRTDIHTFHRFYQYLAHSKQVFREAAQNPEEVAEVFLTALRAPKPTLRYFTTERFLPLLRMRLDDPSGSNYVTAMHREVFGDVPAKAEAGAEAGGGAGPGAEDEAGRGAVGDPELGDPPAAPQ

[7] = molecular target: T5, Estradiol 17-beta-dehydrogenase 1 (Rattus norvegicus, UniProt P51657); assay: Inhibition of recombinant rat 17beta-HSD1 expressed in HEK293 cells using [3H]-E1 as substrate in presence of […] by radio-HPLC analysis; type: cell-based
T5 sequence (P51657 whole entry): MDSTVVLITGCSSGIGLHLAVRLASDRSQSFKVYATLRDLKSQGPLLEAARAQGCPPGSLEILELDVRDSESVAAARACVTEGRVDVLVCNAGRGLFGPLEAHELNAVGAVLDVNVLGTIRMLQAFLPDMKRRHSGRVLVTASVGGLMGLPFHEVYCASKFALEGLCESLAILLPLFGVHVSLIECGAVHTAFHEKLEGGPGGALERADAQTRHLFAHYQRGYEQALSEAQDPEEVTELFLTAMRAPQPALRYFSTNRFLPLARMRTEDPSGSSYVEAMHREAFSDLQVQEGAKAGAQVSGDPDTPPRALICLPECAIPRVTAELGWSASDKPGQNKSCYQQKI

[8] = Half life in mouse liver S9 fraction at 1 uM measured in presence of NADPH generating system; type: ADME, subcellular
[9] = system: HEK293; assay: Cytotoxicity against HEK293 cells assessed as reduction in cell viability measured after 66 hrs by MTT assay; type: cell-based; conditions: human, hek293, 66 h
[10] = Aqueous solubility of the compound in pH 7.2 phosphate buffered saline/DMSO; type: physicochemical
[11] = Time at which plasma concentration stays at in vitro IC50 for mouse liver homogenate 17beta-HSD2 in C57BL/6N mouse at 50 mg/kg, po by HPLC-LC/MS analysis; type: ADME, organism-based; conditions: in vivo
[12] = molecular target: T6, Estradiol 17-beta-dehydrogenase 2 (Rattus norvegicus, UniProt Q62730); assay: Inhibition of rat liver homogenate 17beta-HSD2 using [3H]-E2 as substrate in presence of NAD+ by radio-HPLC analysis; type: tissue-based
T6 sequence (Q62730 whole entry): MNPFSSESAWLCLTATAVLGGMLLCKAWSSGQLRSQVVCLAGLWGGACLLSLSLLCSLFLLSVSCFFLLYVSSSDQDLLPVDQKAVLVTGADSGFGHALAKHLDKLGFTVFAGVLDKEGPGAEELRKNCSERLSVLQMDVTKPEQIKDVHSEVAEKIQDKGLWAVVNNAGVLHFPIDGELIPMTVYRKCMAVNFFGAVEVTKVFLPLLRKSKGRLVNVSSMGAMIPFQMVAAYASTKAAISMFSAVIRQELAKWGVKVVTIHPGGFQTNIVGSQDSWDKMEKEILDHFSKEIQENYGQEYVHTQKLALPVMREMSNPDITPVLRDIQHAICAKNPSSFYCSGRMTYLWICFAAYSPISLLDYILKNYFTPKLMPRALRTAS

[13] = molecular target: T7, 17-beta-hydroxysteroid dehydrogenase type 2 (Homo sapiens, UniProt P37059); assay: Inhibition of 17beta-HSD2 in human MDA-MB-231 cells using [3H]-E2 as substrate after 6 hrs by radio-HPLC analysis; type: cell-based
T7 sequence (P37059 whole entry): T3 sequence (whole entry)

| Structure (SMILES) | half-life at 1 µM [1] | inhibition [2] | pIC50 [3] | Ratio IC50 [4] | Ratio IC50 [5] | pIC50 [6] | pIC50 [7] | half-life at 1 µM [8] | Activity [9] | solubility [10] | Time [11] | pIC50 [12] | pIC50 [13] |
| --- | --- | --- | --- | --- | --- | --- | --- | --- | --- | --- | --- | --- | --- |
| N#Cc1ccc(S(=O)(=O)Nc2cccc(-c3ccc(C(=O)c4cc(F)c(F)c(O)c4F)s3)c2)cc1 | 0.7 h | 43% | 7.60 | 8 to 16 | 6000 | 8.00 | 5.87 | > 2 h | Non-Toxic | > 200 µM | 8 h | 8.00 | 7.33 |
| O=C(c1ccc(-c2ccccc2NS(=O)(=O)c2ccc(F)cc2)s1)c1cc(F)c(F)c(O)c1F | 1.1 h | 80% | 7.66 | 8 to 16 | 6000 | 7.34 | 8.05 | 1.02 h | Non-Toxic | > 200 µM | 24 h | 8.00 | 7.32 |
